Reference: patent US12091411B2, “IRAK degraders and uses thereof” (Kymera Therapeutics, Inc., priority 2022, dated 2024)
Like-named read-outs stand apart in the source and are kept apart here.

Target: T1, IRAK4 (Homo sapiens, UniProt Q9NWZ3)
T1 construct: Degradation of IRAK4 in OCI-LY10 was quantitatively measured using Meso Scale Discovery technology; endogenous in cells; host or cells: OCI-LY10
T1 sequence (Q9NWZ3 1-460): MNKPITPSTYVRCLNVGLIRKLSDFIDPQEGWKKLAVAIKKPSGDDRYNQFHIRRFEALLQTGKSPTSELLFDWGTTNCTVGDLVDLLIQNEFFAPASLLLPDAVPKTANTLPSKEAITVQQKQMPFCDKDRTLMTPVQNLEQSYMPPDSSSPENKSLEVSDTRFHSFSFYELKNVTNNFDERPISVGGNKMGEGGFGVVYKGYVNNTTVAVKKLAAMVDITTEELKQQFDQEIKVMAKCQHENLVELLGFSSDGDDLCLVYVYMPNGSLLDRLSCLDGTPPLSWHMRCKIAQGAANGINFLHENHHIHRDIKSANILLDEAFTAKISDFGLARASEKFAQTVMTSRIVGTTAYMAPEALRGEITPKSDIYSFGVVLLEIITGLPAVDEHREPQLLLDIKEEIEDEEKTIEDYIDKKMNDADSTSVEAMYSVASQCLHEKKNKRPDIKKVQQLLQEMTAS
Test: IRAK4 MSD Degradation in OCI-LY10
Format: cell-based
Settings: OCI-LY10 cells, MSD
In short: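 OCI-LY10 cells exposed to 8-point 1:3 compound series (top 1 to 10 μM) for 4 to 24 h at 37 °C, 5% CO2. Lysate IRAK4 quantified by MSD sandwich immunoassay. DC50 from three-parameter logistic fit, binned A (<0.01 μM) to D (>0.2 μM or not tested).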

[1] = 4 hrs incubation, read-out: IRAK4 degradation in OCI-LY10 at 4 hrs: DC50
[2] = 24 hrs incubation, read-out: IRAK4 degradation in OCI-LY10 at 24 hrs: DC50

Row | SMILES | DC50 [1] | DC50 [2]
1 | C[C@@H]1CN(C[C@H]2CC[C@H](n3cc(NC(=O)c4cnn5ccc(N6C[C@@H]7C[C@H]6CO7)nc45)c(C(F)F)n3)CC2)CC[C@H]1OCC#Cc1cccc2c1n(C)c(=O)n2C1CCC(=O)NC1=O (stereo partly drawn) [I-48] | 10 to 100 nM | > 200 nM
2 | Cn1c(=O)n(C2CCC(=O)NC2=O)c2cccc(C#CCOC3CCN(C[C@H]4CC[C@H](n5cc(NC(=O)c6cncc(C#N)c6)c(C(C)(C)O)n5)CC4)CC3)c21 (stereo partly drawn) [I-266] | > 200 nM | > 200 nM
3 | Cn1c(=O)n(C2CCC(=O)NC2=O)c2cccc(C#CCN3CCN(C[C@H]4CC[C@H](n5cc(NC(=O)c6cnn7ccc(N8CCNCC8)nc67)c(C(F)F)n5)CC4)CC3)c21 (stereo partly drawn) [I-299] | > 200 nM | < 10 nM
4 | Cn1c(=O)n(C2CCC(=O)NC2=O)c2cccc(C[C@H]3CN(Cc4ccc(-n5cc(NC(=O)c6cnn7ccc(N8C[C@H]9C[C@@H]8CO9)nc67)c(C(F)F)n5)cc4)CCO3)c21 (stereo partly drawn) [I-384] | > 200 nM | > 200 nM
5 | CN(C[C@H]1CC[C@H](n2cc(NC(=O)c3cnn4ccc(N5CCC5)nc34)c(C(F)F)n2)CC1)C1CCN(c2cccc3c2n(C)c(=O)n3C2CCC(=O)NC2=O)CC1 (stereo partly drawn) [I-277] | > 200 nM | < 10 nM
6 | Cn1c(=O)n(C2CCC(=O)NC2=O)c2cccc(C#CCN3CCN(C[C@H]4CC[C@H](n5cc(NC(=O)c6cnn7ccc(N8CCN(C(F)(F)F)CC8)nc67)c(C(F)F)n5)CC4)CC3)c21 (stereo partly drawn) [I-408] | > 200 nM | > 200 nM
7 | Cn1c(=O)n(C2CCC(=O)NC2=O)c2cccc(C#CCN3CCN(C(C#N)[C@H]4CC[C@H](n5cc(NC(=O)c6cnn7ccc(N8C[C@H]9C[C@@H]8CO9)nc67)c(C(F)F)n5)CC4)CC3)c21 (stereo partly drawn) [I-196] | > 200 nM | 10 to 100 nM
8 | CN(C[C@H]1CC[C@H](n2cc3cc(NC(=O)c4cccc(C(F)(F)F)n4)c(S(C)(=N)=O)cc3n2)CC1)C1CCN(c2cccc3c2n(C)c(=O)n3C2CCC(=O)NC2=O)CC1F (stereo partly drawn) [I-560] | > 200 nM | > 200 nM
9 | Cn1c(=O)n(C2CCC(=O)NC2=O)c2cccc(C#CCOC3CCN(C(C#N)[C@H]4CC[C@H](n5cc(NC(=O)c6cnn7ccc(N8C[C@H]9C[C@@H]8CO9)nc67)c(C(F)F)n5)CC4)CC3)c21 (stereo partly drawn) [I-193, N-[1-[4-[cyano-[4-[3-[1-(2,6-dioxo-3-piperidyl)-3-methyl-2-oxo-benzimidazol-4-yl]prop-2-ynoxy]-1-piperidyl]methyl]cyclohexyl]-3-(difluoromethyl)pyrazol-4-yl]-5-[(1R,4R)-2-oxa-5-azabicyclo[2.2.1]heptan-5-yl]pyrazolo[1,5-a]pyrimidine-3-carboxamide] | > 200 nM | > 200 nM
10 | Cn1c(=O)n(C2CCC(=O)NC2=O)c2ccc(N3CCN(CC4COC5(C4)CN(C[C@H]4CC[C@H](n6cc(NC(=O)c7cnn8ccc(N9C[C@H]%10C[C@@H]9CO%10)nc78)c(C(F)F)n6)CC4)C5)CC3)cc21 (stereo partly drawn) [I-712] | > 200 nM | < 10 nM

Second part, the molecule after the results:

Row | DC50 [1] | DC50 [2] | SMILES
11 | > 200 nM | > 200 nM | Cn1c(=O)n(C2CCC(=O)NC2=O)c2cccc(N3CCC4(CCN(C[C@H]5CC[C@H](n6cc7cc(NC(=O)c8cncc(C#N)c8)c(F)cc7n6)CC5)CC4)CC3)c21 (stereo partly drawn) [I-186]
12 | > 200 nM | > 200 nM | Cn1c(=O)n(C2CCC(=O)NC2=O)c2cccc(C3=CCN(C[C@H]4CC[C@H](n5cc6cc(NC(=O)c7cccc(C(F)(F)F)n7)c(C(F)F)cc6n5)CC4)CC3(F)F)c21 (stereo partly drawn) [I-456]
13 | > 200 nM | > 200 nM | Cn1c(=O)n(C2CCC(=O)NC2=O)c2cccc(C3CCN(C[C@H]4CC[C@H](n5cc6cc(NC(=O)c7cccc(C(F)(F)F)n7)ccc6n5)CC4)CC3(F)F)c21 (stereo partly drawn) [I-489]
14 | > 200 nM | > 200 nM | CN1CCN(c2ccn3ncc(C(=O)Nc4cn([C@H]5CC[C@H](CN6CCN(CC#Cc7cccc8c7n(C)c(=O)n8C7CCC(=O)NC7=O)CC6)CC5)nc4C(F)F)c3n2)CC1C(F)F (stereo partly drawn) [I-411]
15 | > 200 nM | > 200 nM | COc1nc(NC(=O)c2cccc(C(F)(F)F)n2)cc2cn([C@H]3CC[C@H](CN4CC[C@H](c5cccc6c5n(C)c(=O)n6C5CCC(=O)NC5=O)[C@@H](F)C4)CC3)nc12 (stereo partly drawn) [I-774]
